Measured values as given in patent US20240335541A1, “NANOMATERIALS COMPRISING DIAMINES” (Beam Therapeutics Inc., priority 2021, published 2024).

Columns and labels:
[1] = LNP hydrodynamic diameter and polydispersity by DLS (Example 1 LNPs); format: physicochemical; conditions: LNPs prepared according to Example 1, total lipid to NA mass ratio 11.7
Procedure: LNPs were prepared with a total lipid to NA mass ratio of 11.7. LNPs were formed by microfluidic mixing of the lipid and NA solutions using a Precision Nanosystems NanoAssemblr Spark or Benchtop series Instruments, according to the manufacturers protocol. A ratio of aqueous to organic solvent of approximately 2:1 or 3:1 was maintained during mixing using differential flow rates. After mixing, LNPs were collected, diluted in PBS (approximately 1:1 v/v). Further buffer exchange was conducted using dialysis in PBS at 4° C. for 4 to 24 hours against a 20 kDa filter. After this initial dialysis, each individual LNP preparation was characterized via dynamic light scattering (DLS) to measure the size (e.g., diameter) and polydispersity. In addition, pKa of a subpopulation of LNPs was measured via a 2-(p-toluidino)-6-napthalene sulfonic acid (TNS) assay. LNPs falling within specific diameter and polydispersity ranges are pooled, and further dialyzed against phosphate buffer saline (PBS) at 4° C. for 1 to 4 hours against a 100 kDa dialysis cassette. After the second dialysis, LNPs were sterile filtered using […] filter and stored at 4° C. for further use.
DLS-LNP hydrodynamic diameter and polydispersity index (PDI) were measured using high throughput dynamic light scattering (DLS) (DynaPro plate reader II, Wyatt). LNPs were diluted 1×PBS to an appropriate concentration and analyzed.
Lipid nanoparticle components were dissolved in 100% ethanol at specified lipid component molar ratios. Nucleic acid (NA) cargo was dissolved in 10 mM citrate, 100 mM NaCl, pH 4.0, resulting in a concentration of NA cargo of approximately 0.22 mg/mL. In some embodiments, NA cargos included both a functional NA and a reporter DNA barcode mixed at mass ratios of 1:10 to 10:1 functional NA to barcode. LNPs were formulated with a total lipid to NA mass ratio of 11.7. LNPs were formed by microfluidic mixing of the lipid and NA solutions using a Precision Nanosystems NanoAssemblr Spark or Benchtop series Instruments, according to the manufacturer's protocol. A 2:1 or 3:1 ratio of aqueous to organic solvent was maintained during mixing using differential flow rates. After mixing, LNPs were collected, diluted in PBS (approximately 1:1 v/v), and further buffer exchange was conducted using dialysis in PBS at 4° C. for 8 to 24 hours against a 20 kDa filter. After this initial dialysis, each individual LNP formulation was characterized via DLS to measure the size and polydispersity, and the pKa of a subpopulation of LNPs is measured via TNS assay. After dialysis, LNPs were sterile filtered using 0.22 micron sterile filter and stored at 4° C. for further use.
LNP hydrodynamic diameter and polydispersity index (PDI) were measured using high throughput dynamic light scattering (DLS) (DynaPro plate reader II, Wyatt). LNPs were diluted 1×PBS to an appropriate concentration and analyzed.

[2] = LNP encapsulation efficiency, unlysed vs lysed LNPs, Qubit kit (Example 1 LNPs); format: physicochemical; conditions: LNPs prepared according to Example 1; total lipid to NA mass ratio 11.7
Procedure: Concentration of NA was determined by Qubit microRNA kit (for siRNA) or HS RNA kit (for mRNA) per manufacturer's instructions. Encapsulation efficiency was determined by measuring nucleic acid concentration in unlysed and lysed LNPs. Encapsulation efficiency was determined by measuring unlysed and lysed LNPs.

human ALAS1 target site = assay: In vivo base editing with LNP carrying adenine base editor mRNA and sgRNA, targeted deep sequencing; conditions: 3.0 mg/kg dose IV; NBSGW mice engrafted with human CD34+ cells; four to six days post-dose
Procedure: Exemplary LNP preparations were selected to determine each preparation's ability to perform base editing in a NBSGW mouse model as described herein.
Lipid nanoparticle components were dissolved in 100% ethanol at specified lipid component molar ratios. mRNA encoding an adenine base editor and a chemically-modified sgRNA were dissolved at a mass ratio of 1:1 in 10 mM citrate, pH 3.0, resulting in a concentration of NA cargo of approximately 0.2 mg/mL.
LNP preparations were formulated with molar ratios of 50% Ionizable Lipid: 38.5% Cholesterol: 1.5% PEG2000-DMG: 10% DSPC total lipid to NA mass ratio of 19 to 1.
LNP preparations were formed by microfluidic mixing of the lipid and NA solutions using a Precision Nanosystems NanoAssemblr Spark series Instruments, according to the manufacturer's protocol.
A 3:1 ratio of aqueous to organic solvent was maintained during mixing using differential flow rates. […] After this initial dialysis, each individual LNP preparation was characterized via dynamic light scattering (DLS) to measure size and polydispersity. pKa of a subpopulation of LNP preparations was measured via TNS assay. […]
Age-matched mice were also used to administer vehicle (1×PBS) via tail vein injection as a control. […] Base editing was determined by performing targeted deep sequencing analysis at the human ALAS1 target site using extracted genomic DNA. […]

[3] = LNP hydrodynamic diameter and PDI by DLS (Example 16 LNPs, Stunner); format: physicochemical; conditions: Example 16 LNPs: 47.5% Ionizable Lipid: 40% cholesterol: 2.5% PEG-2000 DMG: 10% DPSC, N/P 4-8
Procedure: (§1) LNPs were prepared with 47.5% Ionizable Lipid (e.g., a compound provided herein): 40% cholesterol: 2.5% PEG-2000 DMG: 10% DPSC and an N/P ratio range of 4-8. LNPs were formed by microfluidic mixing of the lipid and NA solutions using a Precision Nanosystems NanoAssemblr Spark or Benchtop series Instruments, according to the manufacturer's protocol. A ratio of aqueous to organic solvent of approximately 2:1 or 3:1 was maintained during mixing using differential flow rates. After mixing, LNPs were collected, diluted in phosphate buffer saline (PBS) or Tris-buffered saline (TBS) (approximately 1:1 v/v). Further buffer exchange was conducted using dialysis in PBS or TBS at 4° C. for 4 to 24 hours against a 20 kDa filter. After this initial dialysis, each individual LNP preparation was characterized via dynamic light scattering (DLS) to measure the size (e.g., diameter) and polydispersity. LNPs falling within specific diameter and polydispersity ranges were pooled, and further dialyzed against PBS or TBS at 4° C. for 1 to 4 hours against a 100 kDa dialysis cassette. After the second dialysis, LNPs were sterile filtered using 0.22 μm filter and stored at 4° C. for further use.
LNP hydrodynamic diameter and polydispersity index (PDI) were measured using high throughput dynamic light scattering (DLS) (Stunner, Unchained Labs). LNPs were diluted 1×TBS or PBS to an appropriate concentration and analyzed.

[4] = LNP encapsulation efficiency by Ribogreen assay (Example 16 LNPs); format: physicochemical; conditions: Example 16 LNPs: 47.5% Ionizable Lipid: 40% cholesterol: 2.5% PEG-2000 DMG: 10% DPSC, N/P 4-8
Procedure: as §1
RNA concentration and encapsulation efficiency were determined by Ribogreen assay (BioTek Synergy LX plate reader).

Row | Compound | Mean Diameter [1] | Mean PDI [1] | Mean Encapsulation Efficiency [2] | base editing in bulk bone marrow (human ALAS1 target site) | Mean Diameter [3] | Mean PDI [3] | Mean Encapsulation Efficiency [4]
1 | CC/C=C\CCCCOC(CCC(=O)OCCCCCCCN(CCO)CCCN(CCCCCCCOC(=O)CCC(OCCCC/C=C\CC)OCCCC/C=C\CC)CCCCCCCOC(=O)CCC(OCCCC/C=C\CC)OCCCC/C=C\CC)OCCCC/C=C\CC [Example 7-2] | 96.1 nm | 10.9% | 96.8% | 2.2% | – | – | –
2 | CC/C=C\CCCCOC(CCC(=O)OCCCCCCCN(CCCCCCCOC(=O)CCC(OCCCC/C=C\CC)OCCCC/C=C\CC)CCCN(CCO)CCCCCCCC(=O)OCCCCCCCCC)OCCCC/C=C\CC [Example 7-4, ((3-((2-hydroxyethyl)(8-(nonyloxy)-8-oxooctyl)amino)propyl)azanediyl)bis(heptane-7,1-diyl) bis(4,4-bis(((Z)-oct-5-en-1-yl)oxy)butanoate)] | 106.9 nm | 15.4% | 97.5% | – | 95.1 nm | 0.10 | 66.1%
3 | CC/C=C\CCCCOC(CCC(=O)OCCCCCCN(CCO)CCCN(CCCCCCCCCOC(=O)C(CCCC)CCCCCC)CCCCCCCCCOC(=O)C(CCCC)CCCCCC)OCCCC/C=C\CC (stereo not shown) [Example 7-8] | 165.2 nm | 19.3% | 85.4% | – | 91.0 nm | 0.11 | 61.1%
4 | CC/C=C\CCCCOC(CCC(=O)OCCCCCCN(CCCCCCOC(=O)CCC(OCCCC/C=C\CC)OCCCC/C=C\CC)CCN(CCO)CCCCCCCC(=O)OCCCCCCCCC)OCCCC/C=C\CC [Example 7-12, ((2-((2-hydroxyethyl)(8-(nonyloxy)-8-oxooctyl)amino)ethyl)azanediyl)bis(hexane-6,1-diyl) bis(4,4-bis(((Z)-oct-5-en-1-yl)oxy)butanoate)] | 89.3 nm | 14.9% | 94.7% | – | 74.4 nm | 0.11 | 76.5%
5 | CC/C=C\CCCCOC(CCC(=O)OCCCCCCCN(CCCCCCCOC(=O)CCC(OCCCC/C=C\CC)OCCCC/C=C\CC)CCN(CCO)CCCCCCCC(=O)OCCCCCCCCC)OCCCC/C=C\CC [Example 7-13, ((2-((2-hydroxyethyl)(8-(nonyloxy)-8-oxooctyl)amino)ethyl)azanediyl)bis(heptane-7,1-diyl) bis(4,4-bis(((Z)-oct-5-en-1-yl)oxy)butanoate)] | 93.7 nm | 14.3% | 95.9% | – | 86.2 nm | 0.10 | 75.4%
6 | CC/C=C\CCCCOC(CCC(=O)OCCCCCCN(CCO)CCN(CCCCCCCCCOC(=O)C(CCCC)CCCCCC)CCCCCCCCCOC(=O)C(CCCC)CCCCCC)OCCCC/C=C\CC (stereo not shown) [Example 7-15] | 77.9 nm | 9.2% | 95.6% | – | 77.3 nm | 0.10 | 70.1%
7 | CC/C=C\CCCCOC(CCC(=O)OCCCCCCCN(CCCCCCCOC(=O)CCC(OCCCC/C=C\CC)OCCCC/C=C\CC)CCN(CCCO)CCCCCCCC(=O)OCCCCCCCCC)OCCCC/C=C\CC [Example 7-19, ((2-((3-hydroxypropyl)(8-(nonyloxy)-8-oxooctyl)amino)ethyl)azanediyl)bis(heptane-7,1-diyl) bis(4,4-bis(((Z)-oct-5-en-1-yl)oxy)butanoate)] | 100.8 nm | 13.2% | 92.9% | – | 90.6 nm | 0.13 | 70.0%
